Assay results as given in US11345694B2, “Antibacterial compounds” (DISCUVA LTD., priority 2017, dated 2022).
Converted amounts (≈) assume the structure as drawn.

Assays:
[1] = test system: Staphylococcus aureus ATCC 35556 (SA); assay: MIC broth microdilution; assay type: cell-based; conditions: for MIC: ATCC35556
Outline: (§1)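 CLSI M07 broth microdilution; cation-adjusted MH broth; 2-fold series, final 0.39-200 μM, ≤2% DMSO final; 37° C, ambient atmosphere, 20-24 h. MIC = lowest conc. with no growth.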

[2] = test system: Escherichia coli K12 (EC); assay: MIC broth microdilution; assay type: cell-based
Outline: as §1

[3] = test system: Pseudomonas aeruginosa ATCC 33359 (PA); assay: MIC broth microdilution; assay type: cell-based; conditions: for MIC: ATCC33359
Outline: as §1

[4] = test system: Klebsiella pneumoniae ATCC 10031 (KP2); assay: MIC broth microdilution; assay type: cell-based; conditions: ATCC10031
Outline: (§2)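 CLSI M07-A10 broth microdilution against planktonic cells, two-fold serial compound dilutions spanning 0.39-200 μM final, DMSO at most 2% final. Cation-adjusted Müller-Hinton broth, 37° C, ambient air; MIC taken as lowest concentration inhibiting growth after 20-24 hour incubation.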

[5] = test system: Acinetobacter baumannii ATCC 17978 (AB); assay: MIC broth microdilution; assay type: cell-based; conditions: for MIC: ATCC17978
Outline: as §1

[6] = test system: human hepatocarcinoma cell line ATCC HB-8065 (HepG2); assay: Human cell viability (CellTiter-Glo); assay type: cell-based; conditions: Homo sapiens; HepG2 cells, 24 h incubation, CellTiter-Glo luminescence, 0.2-100 μM; read-out: IC50 values against the HepG2 cell line
Outline: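 HepG2 cells were seeded at 20,000 cells/well in MEM with 10% FBS and, after 24 h, exposed for 24 h at 37° C. to two-fold dilutions (final 0.2-100 μM) in MEM with 1% FBS and 1% DMSO. Viability was read by CellTiter-Glo luminescence, with IC50 from a 4-parameter logistic fit.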

[7] = test system: E. coli NCTC 13441 (UPEC); assay: MIC broth microdilution; assay type: cell-based, Escherichia coli; conditions: for MIC: Escherichia coli, NCTC13441
Outline: as §1

[8] = test system: K. pneumoniae H154680676 (KP5); assay: MIC broth microdilution; assay type: cell-based, Klebsiella pneumoniae; conditions: Klebsiella pneumoniae
Outline: as §2

[9] = test system: K. pneumoniae H154600588 (KP8); assay: MIC broth microdilution; assay type: cell-based, Klebsiella pneumoniae; conditions: Klebsiella pneumoniae
Outline: as §2

[10] = test system: K. pneumoniae H154640784 (KP7); assay: MIC broth microdilution; assay type: cell-based, Klebsiella pneumoniae; conditions: Klebsiella pneumoniae
Outline: as §2

[11] = test system: K. pneumoniae H154020667 (KP6); assay: MIC broth microdilution; assay type: cell-based, Klebsiella pneumoniae; conditions: Klebsiella pneumoniae
Outline: as §2

[12] = test system: K. pneumoniae NCTC 13438 (KP1); assay: MIC broth microdilution; assay type: cell-based, Klebsiella pneumoniae; conditions: Klebsiella pneumoniae, NCTC13438
Outline: as §2

[13] = test system: K. pneumoniae H151440671 (KP10); assay: MIC broth microdilution; assay type: cell-based, Klebsiella pneumoniae; conditions: Klebsiella pneumoniae
Outline: as §2

[14] = test system: K. pneumoniae H154300688 (KP9); assay: MIC broth microdilution; assay type: cell-based, Klebsiella pneumoniae; conditions: Klebsiella pneumoniae
Outline: as §2

[15] = test system: K. pneumoniae ATCC 700603 (KP3); assay: MIC broth microdilution; assay type: cell-based, Klebsiella pneumoniae; conditions: Klebsiella pneumoniae, ATCC700603
Outline: as §2

[16] = test system: Serratia marcescens SL1344 (Sm); assay: MIC broth microdilution; assay type: cell-based
Outline: as §1

[17] = test system: Salmonella typhimurium XNAA5 (St); assay: MIC broth microdilution; assay type: cell-based
Outline: as §1

| Structure (SMILES) | MIC [1] [µM] | MIC [2] [µM] | MIC [3] [µM] | MIC [4] [µM] | MIC [5] [µM] | IC50 [6] [µM] | MIC [7] [µM] | MIC [8] [µM] | MIC [9] [µM] | MIC [10] [µM] | MIC [11] [µM] | MIC [12] [µM] | MIC [13] [µM] | MIC [14] [µM] | MIC [15] [µM] | other results |
| --- | --- | --- | --- | --- | --- | --- | --- | --- | --- | --- | --- | --- | --- | --- | --- | --- |
| COc1ncc(-c2nc(N)[nH]c2-c2ccnc(C)c2)cc1F [Example 29, 4-(5-Fluoro-6-methoxypyridin-3-yl)-5-(2-methylpyridin-4-yl)-1H-imidazol-2-amine] | > 100 | ≤ 1 | > 100 | ≤ 1 | > 100 | > 100 | ≤ 1 | 1 to 10 (≈ 0.299 to 2.99 µg/mL) | 10 to 100 (≈ 2.99 to 29.9 µg/mL) | 10 to 100 (≈ 2.99 to 29.9 µg/mL) | 1 to 10 (≈ 0.299 to 2.99 µg/mL) | 10 to 100 (≈ 2.99 to 29.9 µg/mL) | 1 to 10 (≈ 0.299 to 2.99 µg/mL) | 1 to 10 (≈ 0.299 to 2.99 µg/mL) | 10 to 100 (≈ 2.99 to 29.9 µg/mL) | – |
| Cc1cc(-c2[nH]c(N)nc2-c2ccc3c(c2)OCO3)ccn1 [Example 26, 4-(Benzo[d][1,3]dioxol-5-yl)-5-(2-methylpyridin-4-yl)-1H-imidazol-2-amine] | > 100 | ≤ 1 | > 100 | ≤ 1 | > 100 | > 100 | 1 to 10 (≈ 0.294 to 2.94 µg/mL) | 1 to 10 (≈ 0.294 to 2.94 µg/mL) | 10 to 100 (≈ 2.94 to 29.4 µg/mL) | 10 to 100 (≈ 2.94 to 29.4 µg/mL) | 1 to 10 (≈ 0.294 to 2.94 µg/mL) | 10 to 100 (≈ 2.94 to 29.4 µg/mL) | 1 to 10 (≈ 0.294 to 2.94 µg/mL) | 1 to 10 (≈ 0.294 to 2.94 µg/mL) | 10 to 100 (≈ 2.94 to 29.4 µg/mL) | – |
| O=C(O)c1cn(C2CC2)c2cc(N3CCNCC3)c(F)cc2c1=O [CIP] | – | – | – | – | – | – | – | – | – | – | – | – | – | – | – | MIC SA [1]: B (a MIC of from 1 to 10 is assigned the letter B); MIC Sm [16]: A (an MIC (μM) of less or equal to 1 is assigned the letter A); MIC EC [2]: A (an MIC (μM) of less or equal to 1 is assigned the letter A); MIC PA [3]: B (a MIC of from 1 to 10 is assigned the letter B); MIC St [17]: A (an MIC (μM) of less or equal to 1 is assigned the letter A); MIC AB [5]: A (an MIC (μM) of less or equal to 1 is assigned the letter A); MIC UPEC [7]: D (a MIC of over 100 is assigned the letter D) |
| COc1ccc(-c2nc(N)[nH]c2-c2ccnc(C)c2)cc1Cl [Example 12, 4-(3-Chloro-4-methoxyphenyl)-5-(2-methylpyridin-4-yl)-1H-imidazol-2-amine] | > 100 | 1 to 10 (≈ 0.315 to 3.15 µg/mL) | > 100 | ≤ 1 | > 100 | > 100 | 1 to 10 (≈ 0.315 to 3.15 µg/mL) | 1 to 10 (≈ 0.315 to 3.15 µg/mL) | 10 to 100 (≈ 3.15 to 31.5 µg/mL) | 10 to 100 (≈ 3.15 to 31.5 µg/mL) | 1 to 10 (≈ 0.315 to 3.15 µg/mL) | 10 to 100 (≈ 3.15 to 31.5 µg/mL) | 1 to 10 (≈ 0.315 to 3.15 µg/mL) | 1 to 10 (≈ 0.315 to 3.15 µg/mL) | 10 to 100 (≈ 3.15 to 31.5 µg/mL) | – |
| Cc1cc(-c2[nH]c(C)nc2-c2ccc3c(c2)OCCO3)ccn1 [Example 84, 4-(4-(2,3-Dihydrobenzo[b][1,4]dioxin-6-yl)-2-methyl-1H-imidazol-5-yl)-2-methylpyridine] | > 100 | 1 to 10 (≈ 0.307 to 3.07 µg/mL) | > 100 | ≤ 1 | > 100 | > 100 | 1 to 10 (≈ 0.307 to 3.07 µg/mL) | 1 to 10 (≈ 0.307 to 3.07 µg/mL) | 10 to 100 (≈ 3.07 to 30.7 µg/mL) | 10 to 100 (≈ 3.07 to 30.7 µg/mL) | 1 to 10 (≈ 0.307 to 3.07 µg/mL) | 10 to 100 (≈ 3.07 to 30.7 µg/mL) | 1 to 10 (≈ 0.307 to 3.07 µg/mL) | 10 to 100 (≈ 3.07 to 30.7 µg/mL) | 10 to 100 (≈ 3.07 to 30.7 µg/mL) | – |
| Cc1cc(-c2nc(N)[nH]c2-c2ccc3c(c2)N(CCN)C(=O)CO3)ccn1 [Example 89, 6-(2-Amino-4-(2-methylpyridin-4-yl)-1H-imidazol-5-yl)-4-(2-aminoethyl)-2H-benzo[b][1,4]oxazin-3(4H)-one] | > 100 | 1 to 10 (≈ 0.364 to 3.64 µg/mL) | > 100 | ≤ 1 | > 100 | > 100 | 1 to 10 (≈ 0.364 to 3.64 µg/mL) | – | – | – | – | 10 to 100 (≈ 3.64 to 36.4 µg/mL) | – | – | – | – |
| COc1ccc(-c2[nH]c(N)nc2-c2ccnc(C)c2)cc1OC [Example 1, 5-(3,4-Dimethoxyphenyl)-4-(2-methylpyridin-4-yl)-1H-imidazol-2-amine] | > 100 | 10 to 100 (≈ 3.1 to 31 µg/mL) | > 100 | ≤ 1 | > 100 | > 100 | 10 to 100 (≈ 3.1 to 31 µg/mL) | – | – | – | – | > 100 | – | – | – | – |
| Nc1cc(-c2[nH]c(N)nc2-c2ccc3c(c2)OCCO3)ccn1 [Example 24, 4-(2-Amino-4-(2,3-dihydrobenzo[b][1,4]dioxin-6-yl)-1H-imidazol-5-yl)pyridin-2-amine] | > 100 | 1 to 10 (≈ 0.309 to 3.09 µg/mL) | > 100 | ≤ 1 | > 100 | > 100 | 1 to 10 (≈ 0.309 to 3.09 µg/mL) | 1 to 10 (≈ 0.309 to 3.09 µg/mL) | 10 to 100 (≈ 3.09 to 30.9 µg/mL) | 10 to 100 (≈ 3.09 to 30.9 µg/mL) | 1 to 10 (≈ 0.309 to 3.09 µg/mL) | 10 to 100 (≈ 3.09 to 30.9 µg/mL) | 1 to 10 (≈ 0.309 to 3.09 µg/mL) | 10 to 100 (≈ 3.09 to 30.9 µg/mL) | 10 to 100 (≈ 3.09 to 30.9 µg/mL) | – |
